In US6331555A, “Treatment of platelet derived growth factor related disorders such as cancers” (priority 1999, dated 2001):
Values joined by “and” are separate entries in the source; they are usually repeats but may differ in a detail not shown here. Identical values can stand only once. Like-named read-outs stand apart in the source and are kept apart here.

How the values were obtained:
[1] = test system: A431 cells; details: cited from earlier work
[2] = test system: Platelet-derived growth factor-dependent tyrosine phosphorylation; details: intact cells; cited from earlier work
[3] = test system: U1242 cells; assay: Cytotoxicity in U1242 cells, MTT; type: cell-based, human; details: Homo sapiens, read-out: CYTOXICITY MTT U1242 LD50; heading: CYTOXICITY MTT U1242 LD50
Protocol: (§1) The cytotoxicity of each drug was also determined. The cells were plated as described above. Following incubation with drug, cell survival was measured by an MTT assay as described by Mossman J. Immunol. Methods 65:55-63 (1983), or by measuring the amount of LDH released (Korzeniewski and Callewaert, J. Immunol. Methods 64:313 (1983); Decker and Lohmann-Matthes, J. Immunol. Methods 115:61 (1988) .

[4] = biological target: PDGFR (Homo sapiens, UniProt P09619); assay: PDGF-stimulated receptor phosphorylation in U1242 cells, ELISA; type: cell-based; parameters: U1242 (PDGF-β receptor); host or cells: U1242 MG glioma cells; details: 100 ng/ml PDGF-BB; read-out: ELISA P-TYR U1242 IC50
Sequence of PDGFR (Homo sapiens, UniProt P09619) (P09619 33-1106): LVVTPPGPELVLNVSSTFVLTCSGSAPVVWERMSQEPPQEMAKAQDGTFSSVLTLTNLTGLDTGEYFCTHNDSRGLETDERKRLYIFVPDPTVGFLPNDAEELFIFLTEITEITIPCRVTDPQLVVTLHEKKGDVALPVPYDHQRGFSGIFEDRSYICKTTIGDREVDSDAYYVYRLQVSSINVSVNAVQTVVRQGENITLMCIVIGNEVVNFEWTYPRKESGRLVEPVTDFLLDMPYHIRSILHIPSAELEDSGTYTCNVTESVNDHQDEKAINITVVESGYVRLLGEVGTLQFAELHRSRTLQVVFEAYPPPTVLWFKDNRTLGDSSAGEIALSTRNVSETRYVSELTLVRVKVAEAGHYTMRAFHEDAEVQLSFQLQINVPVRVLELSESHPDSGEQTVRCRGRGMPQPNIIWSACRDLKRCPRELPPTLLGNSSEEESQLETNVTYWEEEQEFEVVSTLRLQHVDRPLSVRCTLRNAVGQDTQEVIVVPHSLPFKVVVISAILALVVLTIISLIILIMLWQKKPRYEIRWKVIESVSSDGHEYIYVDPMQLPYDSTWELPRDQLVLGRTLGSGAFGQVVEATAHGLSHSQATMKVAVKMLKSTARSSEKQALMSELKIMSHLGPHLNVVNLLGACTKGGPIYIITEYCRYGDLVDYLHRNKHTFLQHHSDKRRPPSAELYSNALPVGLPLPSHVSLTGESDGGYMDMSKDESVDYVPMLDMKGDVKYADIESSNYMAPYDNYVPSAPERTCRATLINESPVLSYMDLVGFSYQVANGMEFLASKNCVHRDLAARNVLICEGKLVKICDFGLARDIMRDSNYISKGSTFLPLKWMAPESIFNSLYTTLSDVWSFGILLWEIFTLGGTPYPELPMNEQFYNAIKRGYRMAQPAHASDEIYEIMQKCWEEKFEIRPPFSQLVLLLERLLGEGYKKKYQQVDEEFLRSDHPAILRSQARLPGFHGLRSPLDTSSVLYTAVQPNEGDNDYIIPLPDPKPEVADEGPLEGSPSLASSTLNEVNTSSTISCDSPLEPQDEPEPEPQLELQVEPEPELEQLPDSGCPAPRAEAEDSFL
Protocol: (§2) For ELISA assays, cells were grown to 80-90% confluency in growth medium and seeded in 96-well tissue culture plates in 0.5% serum at 25,000 to 30,000 cells per well. After overnight incubation in 0.5% serum-containingmedium, cells were changed to serum-free medium and treated with test compound for 2 hr in a 5% CO2, 37° C. incubator. Cells were then stimulated with ligand for 5-10 min followed by lysis with HNTG (20 mM Hepes, 150 mM NaCl, 10% glycerol, 5 mM EDTA, 5 mM Na3 VO4 0.2% Triton X-100, and 2 mM NaPyr). […] Lysates were incubated with shaking for 1 hr at room temperature. The plates were washed with TBST four times and then incubated with polyclonol anti-phosphotyrosine antibody at room temperature for 30 min. Excess anti-phosphotyrosine antibody was removed by rinsing the plate with TBST four times. Goat anti-rabbit IgG antibody was added to the ELISA plate for 30 min at room temperature followed by rinsing with TBST four more times.
U1242 MG cells were plated in 96-well plates at a concentration of 5×10^4 cells/well in cultured media containing 0.5% FBS. The cells were incubated for 24 hours. The cells were then treated with a particular compound for 2 hours followed by the addition of 100 ng/ml PDGF-BB and incubation for 10 minutes.
Cells were lysed in 0.2 M Hepes, 0.15 M NaCl, 10% V/V glycerol, 0.04% Triton X-100, 5 mM EDTA, 5 MM Na^+ vanadate and […] Na^+ pyrophosphate. Cell lysates were then added to an ELISA plate coated with an anti-PDGF receptor antibody (Genzyme). ELISA plates were coated at […] of antibody/well in […] of PBS for 18 hours at 4° C. prior to the addition of the lysate.
The lysate was incubated in the coated plates for 1 hour and then washed four times in TBST (35 mM Tris-HCl pH 7.0, 0.15 M NaCl, 0.1% Triton X-100). Anti-phosphotyrosine antibody ([…] in PBS) was added and the mixture was incubated for 30 minutes at room temperature. The wells were then washed four times in TBST, a secondary antibody conjugated to POD (TAGO) was added to each well, and the treated wells were incubated for 30 minutes at room temperature. The wells were then washed four times in TBST, ABTS/H2 O2 solution was added to each well and the wells were incubated for two minutes. Absorbance was then measured at 410 nm.

[5] = biological target: T1, PDGF-R (U1242) (Homo sapiens, UniProt P09619); assay: U1242 kinase (PDGF-R activity); type: cell-based
T1 construct: U1242 (PDGF-β receptor); host or cells: U1242 MG glioma cells
T1 sequence (P09619 33-1106): as above
Protocol: (§3) For western blotting, cells were plated in 2 mL growth medium into 6-well dishes (500,000 cells per well) and allowed to attach overnight. […] The plates were then incubated overnight at 37° C., ambient CO2. […] After a 7 min incubation at room temperature with ligand, the plates were put on ice and washed three times with 1 mL ice-cold PBS plus 1 mM orthovanadate. Lysis was achieved by pipetting cells in 0.5 mL of buffer containing 50 mM Tris, pH 7.4, 10% glycerol, 1% NP-40, 2 mM EDTA, 1 mM sodium vanadate (Na3 VO4), 10 mM pyrophosphate, 1 mM PMSF, […]. A 300 μL aliquot of each lysate was immediately added to 100 μL 4×Laemmli sample buffer ([…] Tris pH 6.9, 20% glycerol, 7% SDS, 5 mM EDTA, 5% β-mercaptoethanol) containing phosphatase inhibitors, 2 mM Na3 VO4 and 10 mM pyrophosphate. Samples were boiled for 5 min, frozen in dry ice-ethanol, and stored at -80° C. […] The integrity of the protein-to-membrane transfer was determined by staining with 1% Ponceau S in 5% acetic acid for 5 min. After destaining in several distilled water rinses, the membrane was soaked overnight in blocking buffer containing 5% milk in Tris-buffered saline, 0.05% Tween 20. Phosphotyresine was detected by incubating the membrane (1 hr at room temperature) with an anti-phosphotyosine antiserum diluted in blocking buffer at 1:3000. […] The antibodies were visualized using ECL reagent from Amersham and by exposure to Fuji RX film.
as §2, with “incubator.” for “incubator. Cells were then stimulated with ligand for 5-10 min followed by lysis with HNTG (20 mM Hepes, 150 mM NaCl, 10% glycerol, 5 mM EDTA, 5 mM Na3 VO4 0.2% Triton X-100, and 2 mM NaPyr).”
PDGF-R activity, C6 SRB, and in vivo efficacy were measured using the procedures described in the appendices above.

[6] = test system: C6 glioma cells; assay: C6 glioma SC xenograft in mice; type: in vivo
Protocol: (§4) Cell lines were grown in appropriate medium (see Appendix 1). Cells were harvested at or near confluency with 0.05% Trypsin-EDTA and pelleted at 450×g for 10 min. Pellets were resuspended in sterile PBS or media (without FBS) to a particular concentration and the cells were implanted into the hindflank of mice. Tumor growth was measured over 3 to 6 weeks using venier calipers. Tumor volumes were calculated as a product of length×width×height unless otherwise indicated. P values were calculated using the Students' t-test.
(§5) C6 and SKOV-3(T) cells were grown in culture, as described in "cell growth" above, and implanted into the hind flank of a female Balb/c nu/nu mouse at 3×10^6 cells (for C6 experiments), or 1×10^7 cells (for SKOV-3 experiments) in […] of PBS on Day 0. U87MG, U118MG or U373MG human glioblastoma cells (obtained from the ATCC), or A4312 were also implanted into athymic mice. […] Tumors were measured using venier calipers and tumor volume was calculated as a product of tumor length, width, and height.

[7] = C6 glioma SC xenograft in mice; type: in vivo; details: rat, in vivo, ip
Protocol: as §4, §5

[8] = test system: C6 cells; assay: C6 SRB growth assay; type: cell-based, rat; details: Rattus norvegicus, C6; read-out: C6 SRB IC50
[9] = LD10; details: in vivo
[10] = test system: PDGFR; assay: Receptor tyrosine kinase inhibition, PDGFR; type: cell-based; details: W = done in Western assay; read-out: PDGFR IC50 (W)
Protocol: as §3
as §2, with “incubator.” for “incubator. Cells were then stimulated with ligand for 5-10 min followed by lysis with HNTG (20 mM Hepes, 150 mM NaCl, 10% glycerol, 5 mM EDTA, 5 mM Na3 VO4 0.2% Triton X-100, and 2 mM NaPyr).”
The ability of different compound to inhibit different receptor tyrosine kinases was tested.

[11] = test system: U1242 cells; assay: Cytotoxicity in U1242 cells, LDH; type: cell-based; details: Homo sapiens, read-out: CYTOXICITY LDH U1242 LD50; heading: CYTOXICITY LDH U1242 LD50
Protocol: as §1

[12] = test system: PDGF receptor; details: cited from earlier work
[13] = test system: PDGF β-receptor; details: cited from earlier work
[14] = test system: PDGF α-receptor; details: high concentrations; cited from earlier work
[15] = W = done in Western assay, read-out: U1242 KINASE IC50 (W)

In the case of CC(O)=C(C#N)C(=O)Nc1ccc(C(F)(F)F)cc1 [A77 1726], the “growth of A431 cells” value [1] is given as “inhibited growth of A431 cells” and the “Platelet-derived growth factor-dependent tyrosine phosphorylation” value [2] is given as “inhibited by A77 1726 in intact cells at concentrations similar to EGF-dependent phosphorylation”.

Compound N#CC(C(=O)Nc1ccc(C(F)(F)F)cc1)=C(O)c1cccc(Oc2ccccc2)c1 [Compound B16, 2-Propenamide, 2-cyano-3-hydroxy-3-((3-phenoxy)phenyl)-N-[(4-trifluoromethyl)phenyl]] has a CC50 [3] of 50 µM and an IC50 [4] of 35 µM.

In the case of O=C(NN=Cc1ccc(O)c(O)c1)C(=O)Nc1cccc([N+](=O)[O-])c1 [Compound E15], the CC50 [3] is reported as greater than 100 µM, the IC50 [5, 15] is reported as 5 µM and 10 µM and the IC50 ([5]; read-out: U1242 KINASE IC50) is reported as greater than 50 µM. For the same compound, the inhibition in vivo at 15 mg/kg ([6]; Rattus norvegicus, C6 glioma, sc, at 15 mg/kg, read-out: C6 in vivo EFFICACY) was 66%, the inhibition in vivo at 50 mg/kg ([6]; Rattus norvegicus, C6 glioma, sc, at 50 mg/kg, read-out: C6 in vivo EFFICACY) was 58% and the inhibition in vivo at 100 mg/kg ([6]; Rattus norvegicus, C6 glioma, sc, at 100 mg/kg, read-out: C6 in vivo EFFICACY) was 0%. For the same compound, the mortality at 336 h ([7]; 15 mg/kg) was 0%, the mortality at 360 h ([7]; 50 mg/kg) was 12.5% and the mortality at 192 h ([7]; 100 mg/kg) was 100%. For the same compound, the IC50 [4] was 5 µM, the IC50 [8] was 4.4 µM and the LD10 [9] was greater than 400 mg/kg.

With COc1cc2nc(Cl)c(-c3ccccc3)cc2c(OC)c1OC [Compound G11] the IC50 [10] was 20 µM, the IC50 [4] was 15 µM and the CC50 [11] was 90 µM.

For c1ccc(-c2cnc3ncccc3n2)cc1 [Compound G16], the CC50 [3] was greater than 100 µM and the IC50 [4] was 35 µM.

In the case of O=C(c1ccccc1)c1ccc2ncc(-c3ccccc3)nc2c1 [Compound G21], the IC50 [5, 15] is reported as 6 µM, the IC50 ([5]; read-out: U1242 KINASE IC50) is reported as greater than 50 µM and the “C6 in vivo EFFICACY” value ([6]; at 40 mg/kg) is reported as “no effect”. It also gave a mortality ([7]; 40 mg/kg) of 0%, an IC50 [4] of 6 µM and an IC50 [8] greater than 12 µM. For the same compound, the CC50 [11] was greater than 100 µM and the LD10 [9] was greater than 200 mg/kg.

For Cc1ccc(C(=O)Nc2ccc(S(=O)(=O)O)c3cc(S(=O)(=O)O)cc(S(=O)(=O)O)c23)cc1NC(=O)c1cccc(NC(=O)Nc2cccc(C(=O)Nc3cc(C(=O)Nc4ccc(S(=O)(=O)O)c5cc(S(=O)(=O)O)cc(S(=O)(=O)O)c45)ccc3C)c2)c1 [suramin], the receptor binding [12] is listed as “interfere with receptor binding”.

For neomycin, the “binding of PDGF-BB to the β-receptor” value [13] is listed as “did not inhibit binding to the β-receptor” and the “binding of PDGF-BB to the α-receptor” value [14] is listed as “inhibited the binding of PDGF-BB to the α-receptor”.
